For 46 compounds, IC50, Activity and inhibition results are on record in ChEMBL document CHEMBL5579860, “Design and synthesis of novel Thiazolo[5,4-b]pyridine derivatives as potent and selective EGFR-TK inhibitors targeting resistance Mutations in non-small cell lung cancer” (Eur J Med Chem, 2024).

Series [1] deals with A549. The series can be described thus: Anticancer activity against human A549 cells incubated for 72 hrs by MTT assay. The format is functional, cell-based. As to conditions: A549, 72 h. For orientation: Formazan colour is commonly taken as a measure of viable cells.
The test system of series [2] is HCC827. Kind of series: Anticancer activity against human HCC827 cells incubated for 72 hrs by MTT assay. The format is functional, cell-based. As to conditions: HCC827, 72 h.
Series [3] concerns NCI-H1975. The series can be described thus: Anticancer activity against human NCI-H1975 cells incubated for 72 hrs by MTT assay. The format is functional, cell-based. As to conditions: NCI-H1975, 72 h.
Series [4] can be described thus: Cytotoxicity against human BEAS-2B cells. The format is toxicity, cell-based.
For series [5], the system named is HCC827. The series can be described thus: Induction of apoptosis in human HCC827 cells assessed as early apoptotic cells at IC50 concentration incubated for 24 to 48 hrs by Annexin V-FITC/PI staining based flow cytometry ( Rvb = 2.0% ). As to conditions: time 24-48 hrs. The format is functional. In general terms: In flow cytometry, cells or beads pass a laser one at a time.

In series [6] the test system is HCC827. The series can be described thus: Induction of apoptosis in human HCC827 cells assessed as late apoptotic cells at IC50 concentration incubated for 24 to 48 hrs by Annexin V-FITC/PI staining based flow cytometry ( Rvb = 1.6% ). The format is functional. As to conditions: time 24-48 hrs.
In series [7] the target is Epidermal growth factor receptor (Homo sapiens) (UniProt P00533). The series can be described thus: Inhibition of EGFR autophosphorylation in human HCC827 cells at 0.01 to 1.00 uM incubated for 8 hrs by Western blot analysis. As to conditions: dose 0.01-1 µM. The format is cell-based. (In general: In western blotting, separated proteins are transferred to a membrane and probed.)

The source made the active and inactive calls. No cut-off for these calls is given here.

Epidermal growth factor receptor (Homo sapiens), sequence (P00533 whole entry): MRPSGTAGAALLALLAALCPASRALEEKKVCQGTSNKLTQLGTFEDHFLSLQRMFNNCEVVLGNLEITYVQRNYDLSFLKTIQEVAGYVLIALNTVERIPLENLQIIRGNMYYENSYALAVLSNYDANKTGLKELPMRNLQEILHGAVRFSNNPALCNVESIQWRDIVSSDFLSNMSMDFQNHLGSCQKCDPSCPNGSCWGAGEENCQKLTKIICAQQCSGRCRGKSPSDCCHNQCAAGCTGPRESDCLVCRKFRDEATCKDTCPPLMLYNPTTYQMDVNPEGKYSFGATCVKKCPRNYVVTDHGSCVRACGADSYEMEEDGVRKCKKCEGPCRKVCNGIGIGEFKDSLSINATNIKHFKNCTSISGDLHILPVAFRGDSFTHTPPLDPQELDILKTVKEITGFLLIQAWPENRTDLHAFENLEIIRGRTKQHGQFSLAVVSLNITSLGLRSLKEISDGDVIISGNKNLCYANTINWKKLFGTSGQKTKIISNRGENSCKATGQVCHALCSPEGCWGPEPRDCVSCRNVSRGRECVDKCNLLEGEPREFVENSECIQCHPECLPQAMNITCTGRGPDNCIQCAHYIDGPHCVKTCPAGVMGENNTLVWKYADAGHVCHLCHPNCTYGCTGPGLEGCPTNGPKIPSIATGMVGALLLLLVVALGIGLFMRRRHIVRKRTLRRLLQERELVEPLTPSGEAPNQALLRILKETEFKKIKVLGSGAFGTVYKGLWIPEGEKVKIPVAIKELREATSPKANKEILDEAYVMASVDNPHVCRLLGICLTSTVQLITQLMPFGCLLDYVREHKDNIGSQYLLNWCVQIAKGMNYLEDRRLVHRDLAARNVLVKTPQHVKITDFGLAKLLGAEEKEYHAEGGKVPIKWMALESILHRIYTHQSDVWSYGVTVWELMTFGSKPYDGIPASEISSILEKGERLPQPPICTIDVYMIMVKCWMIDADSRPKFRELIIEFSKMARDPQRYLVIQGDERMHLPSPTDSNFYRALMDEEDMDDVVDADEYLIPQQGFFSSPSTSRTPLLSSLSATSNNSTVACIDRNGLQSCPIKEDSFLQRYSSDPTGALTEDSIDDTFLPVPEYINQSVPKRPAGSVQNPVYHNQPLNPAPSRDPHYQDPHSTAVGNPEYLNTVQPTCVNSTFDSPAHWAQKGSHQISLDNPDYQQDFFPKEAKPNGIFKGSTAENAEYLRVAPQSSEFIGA

In general, IC50 refers to the midpoint of a concentration-inhibition curve. On to `Cc1c(NS(=O)(=O)c2cc(F)ccc2F)cccc1-c1nc2cc(CN3CCOCC3)cnc2s1`, for which the IC50 in series [1] was 2100 nM; in series [2] it was 420 nM; in series [3], 460 nM.

For the compound `Cc1c(NS(=O)(=O)c2cc(F)ccc2F)cccc1-c1nc2cc(-c3cccs3)cnc2s1`, the IC50 in series [1] came out at 1330 nM; in series [2] it was 110 nM; in series [3], 300 nM.

In the case of `Cc1c(NS(=O)(=O)c2cc(F)ccc2F)cccc1-c1nc2cc(-c3ccc(C#N)nc3)cnc2s1`, the IC50 in series [1] came to 910 nM; in series [4] it was 37000 nM; in series [2], 41 nM; in series [3], 120 nM.

On to `COc1ccc(F)cc1S(=O)(=O)Nc1cccc(-c2nc3cc(-c4cnc(N)nc4)cnc3s2)c1C`, for which the IC50 in series [1] is 8120 nM; in series [2], 4310 nM; in series [3] it was 4140 nM.

`Cc1c(NS(=O)(=O)c2cc(F)ccc2F)cccc1-c1nc2cc(-c3ccc(C(F)(F)F)nc3)cnc2s1`: the IC50 in series [1] was 980 nM; in series [2], 44 nM; in series [3], 220 nM.

Take `Cc1c(NS(=O)(=O)c2ccccc2)cccc1-c1nc2cccnc2s1`: the IC50 in series [1] stood at 4600 nM; in series [2], 2200 nM; in series [3], 3320 nM.

On to `COc1ccc(F)cc1S(=O)(=O)Nc1cccc(-c2nc3cc(-c4ccc(C#N)nc4)cnc3s2)c1C`, for which the IC50 was determined as 8330 nM in series [1], 4380 nM in series [2] and 4500 nM in series [3].

Consider `Cc1c(NS(=O)(=O)c2ccc(F)c(C#N)c2)cccc1-c1nc2cccnc2s1`, for which the IC50 was determined as 3270 nM in series [1], 1460 nM in series [2] and 2100 nM in series [3].

With `COc1ccc(F)cc1S(=O)(=O)Nc1cccc(-c2nc3cc(-c4cc[nH]n4)cnc3s2)c1C`, the figures for the IC50 in series [1], in series [2] and in series [3] were 9340 nM, 5010 nM and 4890 nM, respectively.

As for `CCc1cnc2sc(-c3cccc(NS(=O)(=O)c4cc(F)ccc4F)c3C)nc2c1`, the figures for the 50% inhibitory concentration (IC50) in series [1], in series [2] and in series [3] were 1480 nM, 700 nM and 420 nM, respectively.

On to `Cc1c(NS(=O)(=O)c2cnn(C)c2)cccc1-c1nc2cccnc2s1`, for which the IC50 in series [1] turned out to be 4230 nM; in series [2], 2180 nM; in series [3] it was 3300 nM.

As for `Cc1c(NS(=O)(=O)c2cccnc2)cccc1-c1nc2cccnc2s1`, the IC50 in series [1] was determined as 4100 nM; in series [2], 2100 nM; in series [3] it was 3060 nM.

For `Cc1c(NS(=O)(=O)c2cc(F)ccc2F)cccc1-c1nc2cccnc2s1`, the IC50 in series [1] worked out at 3090 nM; in series [2], 1160 nM; in series [3], 1090 nM.

Take `Cc1c(NS(=O)(=O)c2cc(F)ccc2F)cccc1-c1nc2cc(-c3cccc(C(F)(F)F)c3)cnc2s1`: the IC50 in series [1] was 1210 nM; in series [2], 92 nM; in series [3], 260 nM.

Regarding `Cc1c(NS(=O)(=O)c2cc(F)ccc2F)cccc1-c1nc2cc(-c3cc[nH]n3)cnc2s1`, the IC50 in series [1] was determined as 1340 nM; in series [2], 140 nM; in series [3] it was 300 nM.

Turning to `COc1cc(-c2cnc3sc(-c4cccc(NS(=O)(=O)c5cc(F)ccc5OC)c4C)nc3c2)ccn1`, the values for the IC50 in series [1], in series [2] and in series [3] were 8450 nM, 4420 nM and 4560 nM, respectively.

For the compound `Cc1c(NS(=O)(=O)c2ccccc2OC(F)(F)F)cccc1-c1nc2cccnc2s1`, the IC50 turned out to be 3190 nM in series [1], 1520 nM in series [2] and 2180 nM in series [3].

With `COc1ccc(F)cc1S(=O)(=O)Nc1cccc(-c2nc3cc(-c4cccnc4OC)cnc3s2)c1C`, the IC50 in series [1] is 8410 nM; in series [2], 4400 nM; in series [3] it was 4550 nM.

For `CSc1ncc(-c2cnc3sc(-c4cccc(NS(=O)(=O)c5cc(F)ccc5F)c4C)nc3c2)cn1`, the IC50 in series [1] worked out at 800 nM; in series [4], 44100 nM; in series [2], 10 nM; in series [3] it was 90 nM.

For `COc1ccc(F)cc1S(=O)(=O)Nc1cccc(-c2nc3cc(-c4cncnc4)cnc3s2)c1C`, the values for the IC50 in series [1], in series [2] and in series [3] were 8140 nM, 4330 nM and 4380 nM, respectively.

For `COc1cccc(-c2cnc3sc(-c4cccc(NS(=O)(=O)c5cc(F)ccc5F)c4C)nc3c2)c1`, the IC50 in series [1] came to 1090 nM; in series [2] it was 720 nM; in series [3], 340 nM.

On to `COc1ncccc1-c1cnc2sc(-c3cccc(NS(=O)(=O)c4cc(F)ccc4F)c3C)nc2c1`, for which the IC50 in series [1] amounted to 920 nM; in series [4], 37100 nM; in series [2], 40 nM; in series [3], 150 nM.

Turning to `Cc1c(N)cccc1-c1nc2cccnc2s1`, the IC50 was 29100 nM in series [1], 10100 nM in series [2] and 12700 nM in series [3].

On to `COc1ccc(F)cc1S(=O)(=O)Nc1cccc(-c2nc3cc(CN4CCN(C)CC4)cnc3s2)c1C`, for which the IC50 was determined as 8500 nM in series [1], 4500 nM in series [2] and 4600 nM in series [3].

On to `Cc1c(NS(=O)(=O)c2cc(F)ccc2F)cccc1-c1nc2cc(-c3ccccc3)cnc2s1`, for which the IC50 in series [1] amounted to 1160 nM; in series [2], 89 nM; in series [3], 220 nM.

For the compound `C=CC(=O)Nc1cc(Nc2nccc(-c3cn(C)c4ccccc34)n2)c(OC)cc1N(C)CCN(C)C` [OSIMERTINIB], the IC50 in series [1] was 860 nM; in series [2], 7 nM.

Turning to `COc1cc(-c2cnc3sc(-c4cccc(NS(=O)(=O)c5cc(F)ccc5F)c4C)nc3c2)ccn1`, the IC50 was 960 nM in series [1], 42 nM in series [2] and 180 nM in series [3].

On to `COc1ccc(F)cc1S(=O)(=O)Nc1cccc(-c2nc3cc(-c4ccccc4)cnc3s2)c1C`, for which the IC50 in series [1] amounted to 11000 nM; in series [2], 6080 nM; in series [3], 6200 nM.

`Cc1c(NS(=O)(=O)c2cc(F)ccc2F)cccc1-c1nc2cc(-c3cnc(N)nc3)cnc2s1`: the IC50 in series [1] was found to be 820 nM; in series [4] it was 38400 nM; in series [2] it was 10 nM; in series [3], 80 nM. The Activity in series [5] was 31.9%; in series [6] it was 8.8%. Further, the inhibition result in series [7] was “Active”.

`Cc1c(NS(=O)(=O)c2cc(F)ccc2F)cccc1-c1nc2cc(CN3CCCC3)cnc2s1`: the IC50 stood at 2180 nM in series [1], 490 nM in series [2] and 520 nM in series [3].

Take `COc1ccc(F)cc1S(=O)(=O)Nc1cccc(-c2nc3cc(-c4cccnc4)cnc3s2)c1C`: the results for the IC50 in series [1], in series [2] and in series [3] were 11200 nM, 6010 nM and 6190 nM, respectively.

As for `COc1ccc(F)cc1S(=O)(=O)Nc1cccc(-c2nc3cc(C#N)cnc3s2)c1C`, the IC50 in series [1] came to 11400 nM; in series [2], 6110 nM; in series [3], 6250 nM.

In the case of `Cc1c(NS(=O)(=O)Cc2ccccc2)cccc1-c1nc2cccnc2s1`, the figures for the IC50 in series [1], in series [2] and in series [3] were 4620 nM, 2240 nM and 3410 nM, respectively.

On to `Cc1c(NS(=O)(=O)c2cc(F)ccc2F)cccc1-c1nc2cc(-c3cncnc3)cnc2s1`, for which the IC50 in series [1] turned out to be 880 nM; in series [4], 42100 nM; in series [2], 21 nM; in series [3], 110 nM.

For the compound `COc1ccc(F)cc1S(=O)(=O)Nc1cccc(-c2nc3cc(-c4ccc(C(F)(F)F)nc4)cnc3s2)c1C`, the values for the IC50 in series [1], in series [2] and in series [3] were 8230 nM, 4360 nM and 4440 nM, respectively.

`COc1cccc(-c2cnc3sc(-c4cccc(NS(=O)(=O)c5cc(F)ccc5OC)c4C)nc3c2)c1`: the values for the IC50 in series [1], in series [2] and in series [3] were 11700 nM, 6210 nM and 7100 nM, respectively.

Turning to `CC(=O)c1ccc(-c2cnc3sc(-c4cccc(NS(=O)(=O)c5cc(F)ccc5F)c4C)nc3c2)cc1`, the IC50 is 1420 nM in series [1], 560 nM in series [2] and 360 nM in series [3].

`COc1ccc(F)cc1S(=O)(=O)Nc1cccc(-c2nc3cc(CN4CCOCC4)cnc3s2)c1C`: the values for the IC50 in series [1], in series [2] and in series [3] were 8540 nM, 4610 nM and 4700 nM, respectively.

Regarding `Cc1c(NS(=O)(=O)c2ccc(F)cc2F)cccc1-c1nc2cccnc2s1`, the IC50 in series [1] is 3170 nM; in series [2], 1400 nM; in series [3], 2110 nM.

With `Cc1c(NS(=O)(=O)c2cc(F)ccc2F)cccc1-c1nc2cc(CN3CCN(C)CC3)cnc2s1`, the IC50 came out at 2310 nM in series [1], 520 nM in series [2] and 770 nM in series [3].

Regarding `COc1ccc(F)cc1S(=O)(=O)Nc1cccc(-c2nc3cc(-c4ccc(C(C)=O)cc4)cnc3s2)c1C`, the IC50 in series [1] stood at 11400 nM; in series [2], 6140 nM; in series [3], 6300 nM.

On to `Cc1c(NS(=O)(=O)c2cccc(Cl)c2)cccc1-c1nc2cccnc2s1`, for which the IC50 in series [1] worked out at 3280 nM; in series [2], 1590 nM; in series [3] it was 2210 nM.

With `COc1ccc(F)cc1S(=O)(=O)Nc1cccc(-c2nc3cc(-c4cccs4)cnc3s2)c1C`, the IC50 in series [1] was 9080 nM; in series [2] it was 4880 nM; in series [3], 4720 nM.

On to `Cc1c(NS(=O)(=O)C2CCOCC2)cccc1-c1nc2cccnc2s1`, for which the results for the IC50 in series [1], in series [2] and in series [3] were 4180 nM, 2110 nM and 3120 nM, respectively.

In the case of `Cc1c(NS(=O)(=O)c2cc(F)ccc2F)cccc1-c1nc2cc(C#N)cnc2s1`, the IC50 was determined as 1280 nM in series [1], 94 nM in series [2] and 280 nM in series [3].

With `COc1ccc(F)cc1S(=O)(=O)Nc1cccc(-c2nc3cc(-c4cccc(C(F)(F)F)c4)cnc3s2)c1C`, the IC50 in series [1] amounted to 10900 nM; in series [2] it was 6020 nM; in series [3], 6110 nM.
